Measurements: ChEMBL document CHEMBL2146418, “Synthesis and comparison of antiplasmodial activity of (+), (-) and racemic 7-chloro-4-(N-lupinyl)aminoquinoline” (Bioorg Med Chem, 2012)

Tests used:
[1] = Cytotoxicity against human HMEC1 cells after 72 hrs by MTT assay; type: cell-based; conditions: HMEC-1, 72 h
[2] = test system: Plasmodium falciparum; assay: Antiplasmodial activity against chloroquine-resistant Plasmodium falciparum isolate Kenya after 72 hrs by lactate dehydrogenase assay; type: functional, organism-based
[3] = Cytotoxicity against human HDF cells after 72 hrs by MTT assay; type: cell-based
[4] = test system: Plasmodium falciparum; assay: Antiplasmodial activity against chloroquine-sensitive Plasmodium falciparum 3D7 infected in human RBC assessed as inhibition of parasite growth after 72 hrs by lactate dehydrogenase assay; type: functional, organism-based; conditions: 3D7, 72 h
[5] = Therapeutic index, ratio of IC50 for human HMEC1 cells to IC50 for Plasmodium falciparum; type: cell-based; conditions: HMEC1 cells versus Plasmodium falciparum, read-out: Ratio IC50
[6] = test system: Plasmodium falciparum; assay: Antiplasmodial activity against chloroquine-resistant Plasmodium falciparum W2 infected in human RBC assessed as inhibition of parasite growth after 72 hrs by lactate dehydrogenase assay; type: functional, organism-based; conditions: W2, 72 h
[7] = test system: Plasmodium falciparum; assay: Antiplasmodial activity against chloroquine-sensitive Plasmodium falciparum D10 infected in human RBC assessed as inhibition of parasite growth after 72 hrs by lactate dehydrogenase assay; type: functional, organism-based; conditions: D10, 72 h

Compound	IC50 [1]	IC50 [2]	IC50 [3]	IC50 [4]	selectivity ratio [5]	IC50 [6]	IC50 [7]
Clc1ccc2c(NCC3CCCN4CCCCC34)ccnc2c1 (racemic)	> 60000 nM	19.4 nM	24600 nM	18.6 nM	> 1000	35.4 nM	16.1 nM
Clc1ccc2c(NC[C@H]3CCCN4CCCC[C@@H]34)ccnc2c1	> 60000 nM	18.9 nM	26900 nM	21.9 nM	> 1000	35.8 nM	17.5 nM
Clc1ccc2c(NC[C@@H]3CCCN4CCCC[C@H]34)ccnc2c1	> 49000 nM	29.2 nM	22600 nM	28.1 nM	> 1000	53.7 nM	24 nM
CCN(CC)CCCC(C)Nc1ccnc2cc(Cl)ccc12 (stereo not drawn) [CHLOROQUINE]	> 38000 nM		> 38000 nM				
